The results in this text go back to patent US10227357B2, “Compounds and methods for kinase modulation, and indications therefor” (Plexxikon Inc., priority 2012, dated 2019).

Structures are written as SMILES.

T1 sequence (P10721 with tags, fused parts or gaps DEL694-753/D816V): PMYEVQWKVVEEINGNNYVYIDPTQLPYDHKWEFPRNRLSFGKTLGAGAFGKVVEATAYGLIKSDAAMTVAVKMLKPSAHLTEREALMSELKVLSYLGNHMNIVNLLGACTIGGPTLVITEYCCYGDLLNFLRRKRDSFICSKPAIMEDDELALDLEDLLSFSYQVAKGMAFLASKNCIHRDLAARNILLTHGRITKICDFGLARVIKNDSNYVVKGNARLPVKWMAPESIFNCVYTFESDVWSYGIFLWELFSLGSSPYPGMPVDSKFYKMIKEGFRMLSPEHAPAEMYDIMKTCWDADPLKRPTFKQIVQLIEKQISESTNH

This experiment has as its target T1, c-kit mutant D816V (Homo sapiens, UniProt P10721, D816V/DEL694-753).
T1 construct: residues 551-934, kinase insertion domain residues 694-753 deleted; 6x-histidine (N); made in house; host or cells: E. coli Arctic Express (DE3) RIL (Stratagene)
Description: c-Kit mutant D816V biochemical assay, AlphaScreen. Particulars: c-kit D816V biochemical inhibitory activity; read-out: Biochemical activity (IC50 μM) Kit D816V. As for the experimental part: Compounds to be tested were dissolved in DMSO to a concentration of 20 mM. These were diluted 30 μl into 120 μl of DMSO (4 mM) and 1 μl was added to an assay plate. These were then serially diluted 1:3 (50 μl to 100 μl DMSO) for a total of 8 points. Plates were prepared such that each kinase reaction is 20 μl in 1× kinase buffer (25 mM HEPES, pH 7.2, 8 mM MgCl2, 2 mM MnCl2, 50 mM NaCl, 0.01% Brij, 1 mM DTT, 0.01% BSA), 5% DMSO and 10 μM ATP. […] After incubation of the kinase reaction for 30 minutes at room temperature, 5 μl of donor beads (Streptavidin coated beads (Perkin Elmer Life Science) final concentration 7.5 μg/ml) in stop buffer (25 mM Hepes pH 7.5, 100 mM EDTA, 0.01% BSA) was added, the sample was mixed and incubated for 20 minutes at room temperature before adding 5 μl of acceptor beads (PY20 coated beads (Perkin Elmer Life Science) final concentration 7.5 μg/ml) in stop buffer. The samples were incubated for 60 minutes at room temperature and the signal per well was read on EnVision reader. […] The signal vs. compound concentration was used to determine the IC50.
Cells were grown in Terrific Broth (TB) media to an OD600 of 0.6 at 37° C. at which temperature was reduced to 10° C., protein was induced with 1.0 mM IPTG for 18 hours and harvested by centrifugation at 8000×g for 20 minutes. Cells were re-suspended in 0.1M KPO4 pH 8.0, 250 mM NaCl, 10% Glycerol, 0.75% NP-40, 25 mM Imidazole, 5 mM BME with 0.2 mg/ml Lysosyme, 2.0 mM PMSF, 25 μg/ml DNAse I, incubated in ice for 30 minutes and lysed with a cell disruptor (MicroFluidics). The lysate was clarified by centrifugation at 20,000×g for 2 hours. The protein was captured with Talon resin (Clontech). Contaminating proteins were washed off with 25 mM Tris-HCl pH 8.3, 250 mM NaCl, 15% Glycerol, 1% Triton X-100, and protein eluted using 100 mM EDTA. The protein was further purified using Gel Filtration column 26/600 Superdex 200 (GE) in 50 mM Tris-HCl, pH 8.0, 250 mM NaCl, 15% Glycerol, 5 mM BME. The protein was aliquoted and flash-frozen in liquid Nitrogen.
Take `C[C@H](NC(=O)N1CCN(c2ncnc3[nH]c(-c4ccc(F)cc4)cc23)CC1)c1ccc(F)cc1` [P-0126, N-[(1S)-1-(4-fluorophenyl)ethyl]-4-[6-(4-fluorophenyl)-7H-pyrrolo[2,3-d]pyrimidin-4-yl]piperazine-1-carboxamide]: the IC50 lay within 0.0001 to 1 µM.

On to `COc1ccc(CNC(=O)N2CCN(c3ncnc4[nH]c(-c5ccc(F)cc5)cc34)CC2)cn1` [P-0129, 4-[6-(4-fluorophenyl)-7H-pyrrolo[2,3-d]pyrimidin-4-yl]-N-[(6-methoxy-3-pyridyl)methyl]piperazine-1-carboxamide], for which the IC50 fell in the range of 0.0001 to 1 µM.

Turning to `O=C(NCc1ccc(Cl)cc1)N1CCN(c2ncnc3[nH]c(C4CC4)cc23)CC1` [P-0138, N-[(4-chlorophenyl)methyl]-4-(6-cyclopropyl-7H-pyrrolo[2,3-d]pyrimidin-4-yl)piperazine-1-carboxamide], the IC50 is 0.0001 to 1 µM.

Consider `O=C(NCc1ccc(Cl)cc1)N1CCN(c2ncnc3[nH]c(Cl)cc23)CC1` [P-0139, N-[(4-chlorophenyl)methyl]-4-(6-chloro-7H-pyrrolo[2,3-d]pyrimidin-4-yl)piperazine-1-carboxamide], for which the IC50 lay within 1 to 10 µM.

Consider `COc1ncc(F)cc1CNC(=O)N1CCN(c2ncnc3[nH]c(-c4cccnc4)cc23)CC1` [P-0140, N-[(5-fluoro-2-methoxy-3-pyridyl)methyl]-4-[6-(3-pyridyl)-7H-pyrrolo[2,3-d]pyrimidin-4-yl]piperazine-1-carboxamide], for which the IC50 lay within 1 to 10 µM.

As to `Cc1ccc(NS(=O)(=O)N2CCN(c3ncnc4[nH]c(-c5ccc(Cl)cc5)cc34)CC2)cc1` [P-0142, 4-[6-(4-chlorophenyl)-7H-pyrrolo[2,3-d]pyrimidin-4-yl]-N-(p-tolyl)piperazine-1-sulfonamide], the IC50 lay in the range of 10 to 200 µM.

Consider `O=C(NC(=O)N1CCN(c2ncnc3[nH]c(-c4ccc(F)cc4)cc23)CC1)c1ccccc1` [P-0143, N-benzoyl-4-[6-(4-fluorophenyl)-7H-pyrrolo[2,3-d]pyrimidin-4-yl]piperazine-1-carboxamide], for which the IC50 is 1 to 10 µM.

In the case of `COc1ccc([C@@H](C)NC(=O)N2CCN(c3ncnc4[nH]c(-c5ccc(F)cc5)cc34)CC2)cc1` [P-0145], the IC50 is 10 to 200 µM.

For the compound `C[C@@H](NC(=O)N1CCN(c2ncnc3[nH]c(-c4ccc(F)cc4)cc23)CC1)c1ccc(F)cc1` [P-0146, N-[(1R)-1-(4-fluorophenyl)ethyl]-4-[6-(4-fluorophenyl)-7H-pyrrolo[2,3-d]pyrimidin-4-yl]piperazine-1-carboxamide], the IC50 fell in the range of 10 to 200 µM.

Turning to `C[C@@H](NC(=O)N1CCN(c2ncnc3[nH]c(-c4ccc(F)cc4)cc23)CC1)c1ccc(F)cc1` [P-0147, N-[(1R)-1-(4-fluorophenyl)ethyl]-4-[6-(4-fluorophenyl)-7H-pyrrolo[2,3-d]pyrimidin-4-yl]piperazine-1-carboxamide], the IC50 was 1 to 10 µM.

As to `O=C(NC1CCCC1)N1CCN(c2ncnc3[nH]c(-c4ccc(F)cc4)cc23)CC1` [P-0148, N-cyclopentyl-4-[6-(4-fluorophenyl)-7H-pyrrolo[2,3-d]pyrimidin-4-yl]piperazine-1-carboxamide], the IC50 lay in the range of 10 to 200 µM.

As to `O=C(Nc1cccnc1)N1CCN(c2ncnc3[nH]ccc23)CC1` [P-0152, N-(3-pyridyl)-4-(7H-pyrrolo[2,3-d]pyrimidin-4-yl)piperazine-1-carboxamide], the IC50 lay in the range of 0.0001 to 1 µM.

Consider `Cc1ccccc1C(=O)c1c[nH]c2ncnc(N3CCN(C(=O)NCc4ccc(F)cc4)CC3)c12` [P-0160, N-[(4-fluorophenyl)methyl]-4-[5-(2-methylbenzoyl)-7H-pyrrolo[2,3-d]pyrimidin-4-yl]piperazine-1-carboxamide], for which the IC50 lay in the range of 1 to 10 µM.

Take `O=C(NCCc1ccc(Cl)cc1)N1CCN(c2ncnc3[nH]c(-c4ccc(F)cc4)cc23)CC1` [P-0161, N-[2-(4-chlorophenyl)ethyl]-4-[6-(4-fluorophenyl)-7H-pyrrolo[2,3-d]pyrimidin-4-yl]piperazine-1-carboxamide]: the IC50 lay in the range of 0.0001 to 1 µM.

Regarding `O=C(NCCc1ccccc1)N1CCN(c2ncnc3[nH]c(-c4ccc(F)cc4)cc23)CC1` [P-0162, 4-[6-(4-fluorophenyl)-7H-pyrrolo[2,3-d]pyrimidin-4-yl]-N-phenethyl-piperazine-1-carboxamide], the IC50 was in the range of 10 to 200 µM.

`O=C(NCc1cccc(F)c1)N1CCN(c2ncnc3[nH]ccc23)CC1` [P-0163, N-[(3-fluorophenyl)methyl]-4-(7H-pyrrolo[2,3-d]pyrimidin-4-yl)piperazine-1-carboxamide]: the IC50 fell in the range of 10 to 200 µM.

Regarding `O=C(NCCc1ccc(F)cc1)N1CCN(c2ncnc3[nH]ccc23)CC1` [P-0164, N-[2-(4-fluorophenyl)ethyl]-4-(7H-pyrrolo[2,3-d]pyrimidin-4-yl)piperazine-1-carboxamide], the IC50 was in the range of 10 to 200 µM.

Turning to `O=C(NC(=O)N1CCN(c2ncnc3[nH]ccc23)CC1)c1ccccc1` [P-0174, N-benzoyl-4-(7H-pyrrolo[2,3-d]pyrimidin-4-yl)piperazine-1-carboxamide], the IC50 was 10 to 200 µM.

As to `O=C(NCc1ccc(F)cc1)N1CCN(c2ncnc3[nH]cc(C4CC4)c23)CC1` [P-0179, 4-(5-cyclopropyl-7H-pyrrolo[2,3-d]pyrimidin-4-yl)-N-[(4-fluorophenyl)methyl]piperazine-1-carboxamide], the IC50 was 1 to 10 µM.

Consider `Cc1ccccc1C(=O)c1c[nH]c2ncnc(N3CCN(C(=O)OC(C)(C)C)CC3)c12` [P-0187, tert-butyl 4-[5-(2-methylbenzoyl)-7H-pyrrolo[2,3-d]pyrimidin-4-yl]piperazine-1-carboxylate], for which the IC50 lay in the range of 0.0001 to 1 µM.

`CC(C)(C)OC(=O)N1CCN(c2ncnc3[nH]c(C(=O)Nc4ccccc4)cc23)CC1` [P-0211, tert-butyl 4-[6-(phenylcarbamoyl)-7H-pyrrolo[2,3-d]pyrimidin-4-yl]piperazine-1-carboxylate]: the IC50 is 0.0001 to 1 µM.

`COc1cccc(NC(=O)N2CCN(c3ncnc4[nH]cc(-c5ccccc5)c34)CC2)c1` [P-0228, N-(3-methoxyphenyl)-4-(5-phenyl-7H-pyrrolo[2,3-d]pyrimidin-4-yl)piperazine-1-carboxamide]: the IC50 fell in the range of 1 to 10 µM.

As to `COc1cccc(NC(=O)N2CCN(c3ncnc4[nH]c(-c5cccnc5)cc34)CC2)c1` [P-0231, N-(3-methoxyphenyl)-4-[6-(3-pyridyl)-7H-pyrrolo[2,3-d]pyrimidin-4-yl]piperazine-1-carboxamide], the IC50 lay in the range of 1 to 10 µM.

For `COc1cccc(NC(=O)N2CCN(c3ncnc4[nH]c(-c5ccccc5)cc34)CC2)c1` [P-0238, N-(3-methoxyphenyl)-4-(6-phenyl-7H-pyrrolo[2,3-d]pyrimidin-4-yl)piperazine-1-carboxamide], the IC50 lay in the range of 10 to 200 µM.

As for `COc1cc2ncnc(-c3ccc(NS(C)(=O)=O)c(F)c3)c2cc1OC` [P-0272, N-[4-(6,7-dimethoxyquinazolin-4-yl)-2-fluoro-phenyl]methanesulfonamide], the IC50 was in the range of 0.0001 to 1 µM.

As for `COc1ccc(S(=O)(=O)Nc2ccc(-c3ncnc4cc(OC)c(OC)cc34)cc2F)cc1` [P-0273, N-[4-(6,7-dimethoxyquinazolin-4-yl)-2-fluoro-phenyl]-4-methoxy-benzenesulfonamide], the IC50 was 0.0001 to 1 µM.

Take `COc1cc2ncnc(-c3ccc(NS(=O)(=O)N4CCCC4)c(F)c3)c2cc1OC` [P-0274, N-[4-(6,7-dimethoxyquinazolin-4-yl)-2-fluoro-phenyl]pyrrolidine-1-sulfonamide]: the IC50 was 1 to 10 µM.

In the case of `CCCS(=O)(=O)Nc1ccc(-c2ncnc3cc(OC)c(OC)cc23)cc1F` [P-0275, N-[4-(6,7-dimethoxyquinazolin-4-yl)-2-fluoro-phenyl]propane-1-sulfonamide], the IC50 is 1 to 10 µM.

As for `Cc1cc2c(-c3ccc(NS(=O)(=O)c4ccc(C(C)C)cc4)cc3)ncnc2[nH]1` [P-0306, 4-isopropyl-N-[4-(6-methyl-7H-pyrrolo[2,3-d]pyrimidin-4-yl)phenyl]benzenesulfonamide], the IC50 was 1 to 10 µM.

With `Cc1cc2c(-c3ccc(NS(=O)(=O)c4ccc(C(F)(F)F)cn4)cc3)ncnc2[nH]1` [P-0312, N-[4-(6-methyl-7H-pyrrolo[2,3-d]pyrimidin-4-yl)phenyl]-5-(trifluoromethyl)pyridine-2-sulfonamide], the IC50 lay in the range of 1 to 10 µM.

As to `Cc1cc2c(-c3ccc(NS(=O)(=O)c4ccc(Cl)c(Cl)c4)cc3)ncnc2[nH]1` [P-0316, 3,4-dichloro-N-[4-(6-methyl-7H-pyrrolo[2,3-d]pyrimidin-4-yl)phenyl]benzenesulfonamide], the IC50 is 1 to 10 µM.
